The source of these data is patent US20060269480A1, “Multi-triggered self-immolative dendritic compounds” (Ramot At Tel Aviv University Ltd., priority 2005, published 2006).

Assay [1] has as its system MOLT-3 cells. In words: Apoptosis by annexin V/7-AAD flow cytometry. In kind it is cell-based, human. Conditions: 25 nM drug or prodrug, 1 μM 38C2 or PGA where stated. How it is done:
(§1) Cell lines: Human T-lineage acute lymphoblastic leukemia (ALL) cell line MOLT-3, and human erythroleukemia cell line HEL were purchased from American Type Culture Collection (ATCC, Rockville, Md.) and maintained in RPMI 1640 medium (Hyclone, Logan, Utah) supplemented with 10% FCS, 1.5 gram/liter sodium bicarbonate, 10 mM HEPES, 1 mM sodium pyruvate, and antibiotics (Gibco, Grand Island, N.Y.).
Assessment of apoptosis: Cells were stained with Phycoerythrin (PE)-conjugated annexin V and 7-AAD using the annexin V kit (BD PharMingen, San Diego, Calif.) according to the manufacture's protocol. In brief, cells were collected at different time points, washed once with EDTA-free PBS, and then incubated for 15 minutes with a mixture containing annexin V-PE and 7-AAD in binding buffer (10 mM HEPES (pH 7.4), 140 mM NaCl, and 2.5 mM CaCl2). Thereafter, the supernatants were removed, and 400 μl of binding buffer was added to each sample. The fluorescence was analyzed by flow cytometry (FACScan, Becton Dickinson, San Jose, Calif.) for the presence of viable (AV^− and 7-AAD^−), early apoptotic (AV^+, 7-AAD^−), and late apoptotic/secondary necrotic (AV^+ and 7-AAD^+) cells.
MOLT-3cells were incubated in the presence of Compound 16 and PGA or Ab38C2, as described in the Methods section hereinabove, for various time periods. […]
A general note: Flow cytometry measures light scatter and fluorescence of single cells or particles in a stream.

The test system of the next assay is HEL cells. In words: Cell growth inhibition, [3H]thymidine proliferation assay. In kind it is cell-based. Conditions: Homo sapiens, read-out: IC50, HEL cells, 72 hours incubation, 38C2 or PGA at 1 μM where stated, read-out: IC50, Hell cells. As for the experimental part:
as §1
(§2) Cytotoxicity assays: Stock solutions of 2 mM doxorubicin (Dox) and dual-triggered prodrug (pro-Dox, Compound 16) in dimethylformamide were stored at 4° C. For cell-growth inhibition assays, 100 μM solutions of the drug or prodrug in PBS were freshly prepared from the 2 mM stock solutions.
(§3) Cells were harvested from culture dishes, washed once with HBSS, re-suspended in cell culture medium, and plated in 96-well tissue culture plate at a density of 5×10^3/well in 100 μl media. Drugs were further diluted in cell culture medium to yield final concentration of 50 pM-1 μM and added to the cells. […] The cells were frozen at −80° C. overnight and subsequently processed on a multichannel automated cell harvester (Cambridge Technology, Cambridge, Mass.) and counted in a liquid scintillation beta counter (Beckman Coulter). […] The inhibition in experiment E was calculated according to the following formula: (background−E)/background×100%. […]

Assay [2] concerns MOLT-3 cells. The assay is described as above. The format is cell-based. As to conditions: Homo sapiens, 72 hours incubation, 38C2 or PGA at 1 μM where stated. How it is done: as §1, §2, §3

What is called IC50 is the point on the concentration scale where inhibition reaches its midpoint.

Turning to `COc1cccc2c1C(=O)c1c(O)c3c(c(O)c1C2=O)C[C@@](O)(C(=O)CO)C[C@@H]3O[C@H]1C[C@H](N)[C@H](O)[C@H](C)O1` [Dox, doxorubicin], the “incubation time after which the majority of cells were in early or late apoptotic state” value with MOLT-3 cells [1] is 24 h. Moreover, the induction of apoptosis entry in the assay on MOLT-3 cells [1] (up to 72 hours) is “undergo apoptosis”. Further, the IC50 worked out at 20 nM in the assay on HEL cells and 3 nM in the assay on MOLT-3 cells [2].
